# Measurements taken from paper PMC9572773, “Effects of Extracts and Flavonoids from Drosera rotundifolia L. on Ciliary Beat Frequency and Murine Airway Smooth Muscle” (Molecules, 2022).
# Experiments:
# [1] = target: T1, PDE1A (Homo sapiens, UniProt P54750); test: PDE1A inhibitor assay (fluorescence polarization, cell-free); type: biochemical; settings: for IC50: cell-free, duplicates, 1% DMSO, CI = confidence interval
# T1 construct: purchased Biomol (Hamburg, Germany) #60310
# Method: The activity of PDE4D and PDE1A was measured with assay kits #60345 and #60310 from Biomol (Hamburg, Germany). Assays were based on fluorescence polarization using fluorescein amidites-labeled cAMP and were performed according to the manufacturer’s instructions. Samples were recorded as duplicates in a 96-well plate containing equal amounts of DMSO (1%). The fluorescence polarization was measured at excitation wavelengths between 480 and 516 nm and emission wavelengths between 530 and 540 nm by using the plate reader CLARIOstar (BMG Labtech, Ortenberg, Germany). The IC50 values were calculated by a fitting of sigmoidal dose–response curves (variable slope) with GraphPad Prism version 3.00 for Windows (GraphPad, San Diego, CA, USA).
# [2] = system: ciliated tracheal epithelium cells; test: Ciliary beat frequency (CBF) of murine tracheal slices; type: cell-based, C57BL/6N mice; settings: for CBFRatio (related to CBFBasal): mean ± SD
# Method: Male and female C57BL/6N mice (Charles River, Sulzfeld, Germany, and own breeding at the Institute of Pharmaceutical and Medicinal Chemistry, University of Münster, Germany) were housed under standard conditions. Animal care followed the rules of German laws (Az. 53.5.32.7.1/MS-12668, Health and Veterinary Office Münster, Germany). The mice were sacrificed using CO2. Murine tracheal explants were placed in LHC-9 medium (Invitrogen, CA, USA), cut into 0.5 mm slices and stored at 37 °C and an atmosphere of 5% CO2. The medium was changed every 3 days. CBF was measured up to 7 days after dissection. Slices were placed in a 0.7 mL perfusion chamber at 37 °C and perfused with Krebs–Henseleit buffer (1 mL/min). The tissue bath was located at an inverted Nikon Eclipse Ti2 microscope (Nikon GmbH, Düsseldorf, Germany) with a 100× oil objective. Drosera dry extract (0.2 mg/mL) was solved in Krebs–Henseleit buffer containing 0.3% DMSO (DE). The amount of DMSO was not exceeding 0.3%; as for this concentration, no effects on CBF were reported. DFA was prepared as described above. […] 2″-O-Galloylhyperoside, ATP and salbutamol were solved without DMSO. In case DMSO was added, all test solutions of one experiment contained the same amount of DMSO. […] Videos were captured and analyzed by the SAVA software (Ammons Engineering, Clio, MI, USA). Ciliated cells exerted baseline frequencies in a range of 5 to 20 Hz, in agreement with the literature. Data were normalized to values of the last 5 min before changing to a test solution (CBFbasal), and effects on ciliary beating were expressed as a ratio (CBFRatio).
# [3] = system: airway smooth muscle of mouse tracheal slices, acetylcholine-induced contraction; test: ACh-induced contraction of mouse tracheal slices (tissue bath); type: cell-based, C57BL/6N mice
# Excerpt: Male and female C57BL/6N mice (Charles River, Sulzfeld, Germany, and own breeding at the Institute of Pharmaceutical and Medicinal Chemistry, University of Münster, Germany) were housed under standard conditions. Animal care followed the rules of German laws (Az. 53.5.32.7.1/MS-12668, Health and Veterinary Office Münster, Germany). The mice were sacrificed using CO2. A Mayflower horizontal tissue bath (Hugo Sachs Elektronik, Germany) was used to measure contractions. Murine tracheal slices of 3 mm were placed in the 5 mL tissue bath at a preload of 0.2 cN. Krebs–Henseleit buffer (37 °C) was continuously gassed (O2:CO2 95:5). Drosera dry extract (0.5 mg/mL) was solved in Krebs–Henseleit buffer containing 1 % DMSO (DE). DFA was obtained as described above. […] Control solutions contained equal amounts of DMSO depending on the respective test compound. Experiments were started after an equilibration time of 60 min. Tracheal tension was measured isometrically (force transducer F10 Type 375, amplifier TAM-A Type 705/1, evaluation software HSE ACAD 2.0, Harvard Apparatus GmbH, March-Hugstetten, Germany). […] Test solutions were added 10 min before the next ACh bolus. When using a high potassium solution (60 mM K^+), NaCl concentration was reduced to maintain osmolarity. At least 3 K^+-induced contractions (each 20 min) were averaged and taken as control contraction. The maximal contraction represents the highest value, while the plateau (plat.) was calculated in minutes 19–20.
# [4] = target: T2, PDE4D (Homo sapiens, UniProt Q08499); test: PDE4D inhibitor assay (fluorescence polarization, cell-free); type: biochemical; settings: for IC50: cell-free, duplicates, 1% DMSO, CI = confidence interval
# T2 construct: purchased Biomol (Hamburg, Germany) #60345
# T2 sequence (Q08499 303-809 limits assumed): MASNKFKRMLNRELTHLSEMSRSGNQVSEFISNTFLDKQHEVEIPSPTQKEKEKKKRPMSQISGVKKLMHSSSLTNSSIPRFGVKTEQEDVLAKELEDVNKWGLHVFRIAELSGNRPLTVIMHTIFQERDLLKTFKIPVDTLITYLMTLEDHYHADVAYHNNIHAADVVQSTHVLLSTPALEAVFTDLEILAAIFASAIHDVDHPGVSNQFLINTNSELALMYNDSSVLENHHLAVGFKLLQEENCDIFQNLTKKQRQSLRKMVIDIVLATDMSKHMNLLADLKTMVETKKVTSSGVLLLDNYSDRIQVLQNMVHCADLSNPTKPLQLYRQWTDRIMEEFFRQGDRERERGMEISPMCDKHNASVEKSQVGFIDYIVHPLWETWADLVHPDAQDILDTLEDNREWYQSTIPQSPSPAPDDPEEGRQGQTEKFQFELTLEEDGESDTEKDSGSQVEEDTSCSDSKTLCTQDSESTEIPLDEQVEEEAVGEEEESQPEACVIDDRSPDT
# Method: Assays were based on fluorescence polarization using fluorescein amidites-labeled cAMP and were performed according to the manufacturer’s instructions. Samples were recorded as duplicates in a 96-well plate containing equal amounts of DMSO (1%). […] The IC50 values were calculated by a fitting of sigmoidal dose–response curves (variable slope) with GraphPad Prism version 3.00 for Windows (GraphPad, San Diego, CA, USA).
# [5] = system: guinea-pig ileum; set-up: method as in PMID 11933852; settings: 10 µM; cited from earlier work
# T1 sequence (P54750 whole entry): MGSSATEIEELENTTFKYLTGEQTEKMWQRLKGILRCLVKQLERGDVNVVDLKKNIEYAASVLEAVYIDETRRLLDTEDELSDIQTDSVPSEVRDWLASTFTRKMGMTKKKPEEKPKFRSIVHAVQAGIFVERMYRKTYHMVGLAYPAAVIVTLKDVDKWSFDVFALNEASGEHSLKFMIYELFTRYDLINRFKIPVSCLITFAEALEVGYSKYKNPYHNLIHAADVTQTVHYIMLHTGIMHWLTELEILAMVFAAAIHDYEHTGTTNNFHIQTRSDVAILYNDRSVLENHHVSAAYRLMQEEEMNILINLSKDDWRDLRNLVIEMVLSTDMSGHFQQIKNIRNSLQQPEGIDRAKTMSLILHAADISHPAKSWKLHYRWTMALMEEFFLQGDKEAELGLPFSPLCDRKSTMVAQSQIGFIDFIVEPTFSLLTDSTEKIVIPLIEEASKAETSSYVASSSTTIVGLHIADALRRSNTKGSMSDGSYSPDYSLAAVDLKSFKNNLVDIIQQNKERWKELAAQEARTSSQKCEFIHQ
smiles,measurement,setting,value
COc1ccc(C2CNC(=O)C2)cc1OC1CCCC1 (stereo not drawn) [rolipram],remaining activity at 100 µM,"[1]; 100 µM, read-out: PDE1A activity (% of control without inhibitor)",98.2 ± 0.6%
same,remaining activity at 300 µM,"[1]; 300 µM, read-out: PDE1A activity (% of control without inhibitor)",92 ± 2%
same,increase of CBF on average,[2]; 30 µM,20%
same,CBFRatio (related to CBFBasal),"[2]; 30 µM, minutes 10 to 15",1.2 ± 0.2
"O=c1c(O[C@@H]2O[C@H](CO)[C@H](O)[C@H](O)[C@H]2O)c(-c2ccc(O)c(O)c2)oc2cc(O)cc(O)c12 [Hyperoside, hyperoside]","ACh-mediated contraction force, % of control","[3]; 50 to 750 µM, all concentrations tested, 100 µM ACh",approximately 80%
same,maximal reduction of ACh-induced contraction force,[3]; maximal effect,20–25%
same,IC50,[4],3 µM
Nc1ncnc2c1ncn2[C@@H]1O[C@H](COP(=O)(O)OP(=O)(O)OP(=O)(O)O)[C@@H](O)[C@H]1O [ATP],CBFRatio (related to CBFBasal),"[2]; 30 µM, minutes 10 to 15",1.4 ± 0.2
CC(C)(C)NCC(O)c1ccc(O)c(CO)c1 (stereo not drawn) [salbutamol],CBFRatio (related to CBFBasal),"[2]; 50 µM, minutes 5 to 10",1.4 ± 0.3
O=C(O[C@H]1[C@H](Oc2c(-c3ccc(O)c(O)c3)oc3cc(O)cc(O)c3c2=O)O[C@H](CO)[C@H](O)[C@@H]1O)c1cc(O)c(O)c(O)c1 [2″-O-galloylhyperoside],IC50,[1],3 µM
same,CBFRatio (related to CBFBasal),"[2]; 300 µM, minutes 10 to 15",1.11 ± 0.04
same,"ACh-induced contraction, % of control","[3]; 500 µM, 10 min pretreatment, 100 µM ACh",61 ± 21%
same,ACh-induced contraction compared with the effect at 500 µM,"[3]; 750 and 1000 µM, 100 µM ACh",did not significantly differ
same,IC50,[4],1.1 µM
O=c1c(O)c(-c2ccc(O)c(O)c2)oc2cc(O)cc(O)c12 [quercetin],inhibition of carbachol-induced contractions,[5],more than 50%
same,IC50,[1],4 µM
same,CBFRatio (related to CBFBasal),"[2]; 30 µM, minutes 10 to 15",1.2 ± 0.2
same,abrogation of ACh-induced contraction on ASM,[3]; 10 µM,failed to abrogate
same,activity at 25 µM,"[3]; Mus musculus, 25 µM, 10 min pretreatment, read-out: effect of 100 µM ACh (contraction force, % of control)",74 ± 11%
same,activity at 50 µM,"[3]; Mus musculus, 50 µM, 10 min pretreatment, read-out: effect of 100 µM ACh (contraction force, % of control)",63 ± 7%
same,activity at 100 µM,"[3]; Mus musculus, 100 µM, 10 min pretreatment, read-out: effect of 100 µM ACh (contraction force, % of control)",21 ± 2%
same,IC50,[4],2 µM
"COCc1nc2c([nH]1)c(=O)n(C)c(=O)n2CC(C)C [8MmIBMX, 8-methoxymethyl-IBMX]",IC50,[1],12 µM
same,increase of CBF on average,[2]; 100 µM,20%
same,CBFRatio (related to CBFBasal),"[2]; 100 µM, minutes 10 to 15",1.2 ± 0.1
same,PDE4D activity (% of control without inhibitor),[4]; 50 µM,77 ± 6%
same,PDE4D activity (% of control without inhibitor),[4]; 100 µM,70 ± 2%
